Results as given in the supplement of paper PMC10949913.

What was measured:
Assay in all cases: area under concentration-response curve (viability) (AUC (a.u.)); higher = less active
Conditions in all cases: 48 h
[1] = tested on: CU-ACC1
Method in brief: (§1)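 In 1,536-well plates, 500–1,000 cells/well of three adrenocortical carcinoma cell lines in 5 µL medium received 23 nL of each library compound across 11 concentrations. At 48 h, CellTiter-Glo was incubated for 15 minutes at room temperature and luminescence measured. Per-plate normalisation used vehicle and empty-well controls, and only inhibitory or non-responding curve classes were kept when fitting concentration-response curves for AC50 and area under the curve.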

[2] = tested on: CU-ACC2
Method in brief: as §1

[3] = tested on: NCI-H295R
Method in brief: as §1

| Compound | area under concentration-response curve [1] | area under concentration-response curve [2] | area under concentration-response curve [3] |
| --- | --- | --- | --- |
| CN(CC1=CC2=C(N\C(=N/C2=O)C)C=C1)C3=CC=C(S3)C(=O)N[C@@H](CCC(O)=O)C(O)=O | 503 | 602 | 532 |
| CC1=C(C)C=C(N[S+]([O-])(=O)C2=CC3=C(NC(C4C\C=C/C34)C5=CC=C(C=C5)C(O)=O)C=C2)C=C1 (centres undefined) | 525 | 600 | 555 |
| C[C@@H](c1ncncc1F)[C@](O)(Cn1cncn1)c1ccc(F)cc1F | 409 | 513 | 475 |
| C[C@H](CCC(=O)O)[C@H]1CC[C@H]2[C@@H]3[C@@H](O)C[C@@H]4C[C@H](O)CC[C@]4(C)[C@H]3CC[C@]12C | 519 | 496 | 538 |
| C=C1/C(=C/C=C2\CCCC3(C)[C@@H]([C@H](C)/C=C/C=C/C(O)(CC)CC)CC[C@@H]23)C[C@@H](O)C[C@@H]1O (some centres undefined) | 480 | 576 | 522 |
| CC(/C=C1\SC(=S)N(CC(=O)O)C1=O)=C\c1ccccc1 | 494 | 594 | 492 |
| Cc1ccc(NC(=O)Nc2nnc(Sc3ncnc4cc(OCCCN5CCOCC5)ccc34)s2)cc1 | 521 | 583 | 511 |
| Nc1nc(F)nc2c1ncn2[C@@H]1O[C@H](CO)[C@@H](O)[C@@H]1O | 528 | 577 | 510 |
| C[C@H]1CN(C[C@H](Cc2ccccc2)C(=O)NCC(=O)O)CC[C@@]1(C)c1cccc(O)c1 | 569 | 662 | 577 |
| COc1cc2c(cc1OC)CN(CCc1ccc(NC(=O)c3cccc4c(=O)c5cccc(OC)c5[nH]c34)cc1)CC2 | 575 | 621 | 567 |
| Cc1c(F)cc(C(=O)NC2CC2)cc1-c1ccc(C(=O)NCC(C)(C)C)cn1 | 389 | 427 | 394 |
| COc1cc2c(cc1OC)CN(CCc1ccc(NC(=O)c3cc(OC)c(OC)cc3NC(=O)c3cnc4ccccc4c3)cc1)CC2 | 560 | 640 | 569 |
| O=[N+]([O-])c1cnc(Sc2nnc(O)n2-c2ccc3c(c2)OCCO3)s1 | 529 | 611 | 517 |
| OC[C@H]1OC(O)C[C@@H](O)[C@@H]1O (some centres undefined) | 562 | 694 | 607 |
| CC(C)(NC(=O)O[C@@H]1CN2CCC1CC2)c1csc(-c2ccc(F)cc2)n1 | 479 | 477 | 480 |
| CCC(=O)N1CCOc2c(cc(-c3cc(OC)cc(OC)c3)cc2C(=O)N[C@H]2CCCN(C)C2)C1 | 500 | 550 | 463 |
| CCCNC(=O)Nc1ccc(Oc2ncnc3cc(OC)c(OC)cc23)cc1Cl | 332 | 383 | 400 |
| O=C(CN1C(=O)C2(CCCC2)NC[C@H]1c1cc(F)cc(F)c1)Nc1ccc2c(c1)C[C@@]1(C2)C(=O)Nc2ncccc21 | 463 | 565 | 515 |
| CN1CC[C@@H](NC(=O)Nc2ccc(C#N)cc2)C[C@@H]1c1nc2ccccc2[nH]1 | 485 | 595 | 555 |
| O=C(O)C[C@H]1CC[C@H](c2ccc(-c3ccc(Nc4ccc(C(F)(F)F)nc4)cn3)cc2)CC1 | 504 | 580 | 538 |
| O=C(NCC(=O)N1CCCC1)Nc1ccc2cnccc2c1 | 565 | 633 | 569 |
| Cc1ccc(C(=O)c2cc(O)c(O)c([N+](=O)[O-])c2)cc1 | 551 | 645 | 598 |
| CC1=CC(=C(O)C(=C1C\C2=N\CCN2)C)C(C)(C)C | 515 | 579 | 496 |
| COc1ccc(C2CNC(=O)C2)cc1OC1CCCC1 (centres undefined) | 451 | 538 | 501 |

| Compound | area under concentration-response curve [1] | area under concentration-response curve [2] | area under concentration-response curve [3] |
| --- | --- | --- | --- |
| CN[C@@H](C)C(=O)N[C@H](C(=O)N1CCC[C@H]1C(=O)Nc1sc(-c2ncco2)nc1-c1ccccc1)C1CCCCC1 | 457 | 530 | 461 |
| COc1cc2ncnc(Nc3cccc(Br)c3)c2cc1OC | 395 | 583 | 527 |
| NC(=O)C1CCCc2c1[nH]c1ccc(Cl)cc21 (centres undefined) | 496 | 597 | 545 |
| COc1nccc(-c2c(-c3ccc(F)cc3)ncn2C2CCC(O)CC2)n1 (centres undefined) | 523 | 590 | 550 |
| COc1cc2ncnc(Nc3cc(Br)c(O)c(Br)c3)c2cc1OC | 523 | 650 | 581 |
| O=C(NCc1cccc(O)c1)Nc1nc(-c2ccncc2)cs1 | 546 | 582 | 559 |
| COc1cc(OC)c(C(=O)CCCN2CCCC2)c(OC)c1 | 440 | 500 | 465 |
| C=C[C@H]1CN2CC[C@H]1C[C@H]2[C@H](O)c1ccnc2ccc(OC)cc12 | 501 | 602 | 521 |
| OC1=CC=C(C=C1)\C2=C(O)\C(=O)C3=C(O2)C=C(O)C=C3O | 481 | 451 | 484 |
| CC(C)(Sc1cc(C(C)(C)C)c(O)c(C(C)(C)C)c1)Sc1cc(C(C)(C)C)c(O)c(C(C)(C)C)c1 | 550 | 652 | 601 |
| CN(C)N(C)C(=O)[C@@]1(Cc2ccccc2)CCCN(C(=O)[C@@H](Cc2c[nH]c3ccccc23)NC(=O)C(C)(C)N)C1 | 522 | 525 | 514 |
| Cc1cc(O)cc2c1[C@]1(C)CC[C@H]3C(C)(C)CCC[C@]3(C)[C@H]1C2 | 53.6 | 190 | 89.9 |
| O=C(O)CC(C(=O)O)N1C(=O)/C(=C2/C(=O)Nc3ccc(Br)cc32)SC1=S (centres undefined) | 569 | 593 | 567 |
| CC(=O)C1CCC2C3CC\C4=C\C(=O)CCC4(C)C3CCC12C (centres undefined) | 548 | 645 | 607 |
| Clc1ccccc1CN1CCc2sccc2C1 | 510 | 617 | 543 |
| CN(C)[S+](=O)([O-])c1ccc2c(c1)C(=Cc1cc3c([nH]1)CCCC3)C(=O)N2 | 594 | 655 | 576 |
| COc1ccccc1OCC(O)CN1CCN(CC(=O)Nc2c(C)cccc2C)CC1 (centres undefined) | 535 | 627 | 569 |
| CO[C@H]1CC[C@H](N(c2cc(C3=CCCCC3)sc2C(=O)[O-])C(=O)[C@H]2CC[C@H](C)CC2)CC1 | 514 | 613 | 573 |
| C#C[C@]1(O)CC[C@H]2[C@@H]3CCc4cc(OC)ccc4[C@H]3CC[C@@]21C | 414 | 475 | 457 |
| Clc1ccc(-c2nc3sccn3c2/C=N/OCc2ccc(Cl)c(Cl)c2)cc1 | 490 | 549 | 425 |
| C=C(c1ccc(C(=O)O)cc1)c1cc2c(cc1C)C(C)(C)CCC2(C)C | 509 | 500 | 511 |
| COc1ccc(COc2cc3oc(=O)c4cc(C(C)O)ccc4c3cc2OC)cc1 (centres undefined) | 356 | 506 | 466 |
| CNC[C@H](O)c1ccc(O)c(O)c1 | 530 | 608 | 592 |
| CC(COc1ccccc1)N(CCCl)Cc1ccccc1 (centres undefined) | 549 | 653 | 584 |
